Marks after values point to notes of the source that are not given here.
Test system: C57Bl/6 male mice on a high fat diet (HFD)
Test: High-fat diet (HFD) mice treated with CL2-57
Assay type: in vivo, mouse
Method: High-Fat Diet and Drug Treatment. C57Bl/6 male mice (Jackson Laboratories) were placed on a high fat diet (HFD) (60% kcal from fat, Envigo) at 5 weeks. At 10 weeks, mice were acclimated to hydrogel replacement of drinking water (Clear H2O) for 3 days. Then, for six weeks while HFD continued, mice received 10 mg/kg CL2-57 oral gavage Mon/Wed/Fri (vehicle: 9.5% PEG-200, 5% DMSO, 0.1% polysorbate 80 in water) plus 10 mg/kg/day CL2-57 in continuous hydrogel, or vehicle control. Mice were weighed weekly. For fast-refed studies, mice fasted for 16 hours, then refed for 4 hours. Blood glucose was measured with handheld glucometer. Sample size, chosen based on previous experience with glucose tolerance test, was ten mice per treatment. Mice were assigned to treatment groups by cage randomization upon arrival from Jackson Laboratories. Mice were assigned a unique ear tag number to enable blinded tissue analysis and data collection. Treatment and in vivo experimentation were not blinded. No animals were excluded from analysis, and no control for confounders such as cage location or treatment order was performed.
Plasma/Liver Triglycerides. Blood was collected in EDTA-coated tubes (Becton Dickinson) and centrifuged (3500 rpm, 15 minutes) to separate plasma. Livers were flash frozen in liquid nitrogen, then stored at −80° C. until homogenization in isopropanol. Triglyceride levels were measured using reagents from Wako Diagnostics per manufacturer's protocol.
Glucose Tolerance Test (GTT). After 16-hour fast, animals were administered 1.5 g/kg body weight (bwt) glucose by intraperitoneal (i.p.) injection. Glucose in tail vein blood was measured at 0, 10, 20, 30, 45, 60, and 120 minutes using a ONETOUCH® […]® glucometer (LifeScan, Inc). Additional blood was collected at multiple points between 0-30 minutes in heparinized capillary tubes and centrifuged, with plasma insulin levels determined by ELISA (ALPCO).
Insulin Sensitivity Studies. Mice were injected with 1 U/kg bwt HUMALOG® insulin or vehicle (n=3 of each per treatment group) 15 minutes before sacrifice. Liver, subcutaneous fat, and gastrocnemius were collected and homogenized in lysis buffer (50 mM Tris-HCl (pH 7.4), 100 mM NaCl, 1 mM EDTA, 1 mM EGTA, 1% Triton™ X-100, with protease/phosphatase inhibitor (Complete, Roche)). Protein concentration was determined using Bradford reagent (Bio-Rad). Denatured protein (30 μg) was separated by SDS-PAGE (Mini-PROTEAN® TGX™ Gels 10%, Bio-Rad) and transferred to 0.45 μm nitrocellulose membranes. Membranes were blocked with 5% skim milk in TBST (1×TBS+0.1% polysorbate 20) for 1 hour, incubated with primary antibodies overnight at 4° C., washed with TBST, and incubated with horseradish peroxidase (HRP)-linked secondary antibodies for 1 hour. After TBST wash, Clarity™ Western ECL Substrate (Bio-Rad) was added. Blots were imaged and analyzed using a ChemiDoc™ MP and Image Lab Ver 6.0 (Bio-Rad). Protein levels were normalized to GAPDH (muscle) or β-actin (liver, adipose) for quantification. Primary antibodies: Cell Signaling Technology 4060 (pS473Akt, RRID:AB_2315049), 13038 (pT308Akt, RRID:AB_2629447), 4691 (pan-Akt, RRID:AB_915783), 5174 (GAPDH, RRID:AB 10622025) and Sigma A2228 (3-actin, RRID:AB_476697).
qRT-PCR. For cell samples, treated cells were lysed with RLT plus lysis buffer (Qiagen). RNA was isolated with Qiagen RNEASY® Plus columns per manufacturer instructions, then reverse-transcribed to cDNA using […]® III Reverse Transcriptase (200 U/μL, Invitrogen) per supplier protocol. qPCR experiments were either performed with TAQMAN® gene expression master mix (Invitrogen) on a StepOne™ qPCR instrument or with […]® SYBR® Green SuperMix (Quanta Biosciences) on CFX Connect™ Real-Time PCR Detection System (BioRad), with fold-change quantified by ΔΔCt. […]

[1] = HFD mice, compared to vehicle control
[2] = plasma, fold change with CL2-57 vs. vehicle in HFD mice

## CCOC(=O)c1cccc(NC(=O)c2sc(Cl)cc2S(=O)(=O)N(C)c2ccc(OCC)c(OCC)c2)c1 [CL2-57, ethyl 3-(5-chloro-3-(N-(3,4-diethoxyphenyl)-N-methylsulfamoyl)thiophene-2-carboxamido) benzoate]
HFD mice
  Attenuation of HFD increases of plasma proinflammatory lipid mediators (lysophospholipids): 20-60%
  Brown adipose or liver mass: no change
  Fall of liver mRNA encoding PPARα: 75%
  Gluconeogenic metabolites: reduced
  HFD increase of NO precursors arginine and guanidinosuccinate: reversed
  HFD-increased liver oxysterol metabolites 7-hydroxycholesterol and 4-cholesten-3-one: reversed
  Insulin secretion during the first 20 minutes of the GTT: negligible change
  Liver Abcg1 expression: unchanged
  Liver Abcg5 expression: significantly reduced
  Liver Cyp7-a1 mRNA: diminishing trend
  Liver Lpcat3 expression: significantly reduced
  Liver Scd1 expression: significantly reduced
  Liver Srebf1 mRNA: small increase
  Liver cholesterol (reduced in HFD mice): normalized to baseline
  Liver free fatty acid (FFA) concentrations reduced by: 40-90%
  Plasma FFAs decreased: 5-20%
  Plasma levels of cholesterol and oxysterol metabolites: unaffected
  Tissue mass composition by TD-NMR: shifted tissue mass from fat to lean
HFD mice treated with CL2-57, vehicle 120%
  Circulating arachidonic acid (AA) increase over diet controls: 37%
HFD mice, GTT, vs vehicle
  Blood glucose concentrations following single i.p. glucose injection: lower
HFD mice, after five weeks, 2-hour test
  Glucose tolerance test, total area under the curve reduced by: 20%
[1]
  Decrease in plasma TGs: 25%
  Decrease of liver G6PC expression: 73%
  Decrease of liver Pck1 expression: 70%
  HFD increases of the four gluconeogenic precursors, in particular glutamine and glycerol: attenuated
  Liver triglycerides (TGs) reduced by: 35%
HFD mice, initially
  Fasting/refed glucose and insulin levels: Little change
HFD mice, insulin challenge
  Adipose Akt phosphorylation: No treatment effect
  Liver Akt phosphorylation at Ser473 with insulin: did not change
  Liver Akt phosphorylation at Thr308 with insulin: increased
  Skeletal muscle insulin sensitivity versus vehicle: dramatically increased
HFD mice, liver
  Mature, nuclear form of SREBP1c protein: unchanged
  Uncleaved, endoplasmic reticulum form of SREBP1c protein: corresponding increase
HFD mice, liver and adipose
  mRNA levels of proinflammatory enzymes, cytokines and chemokines (COX2, NOS2, TNFα, IL-6, CCL2, CXCL10): substantially lowered
HFD mice, liver homogenates
  Liver ABCA1 protein: increased
  Liver Abca1 expression: increased
HFD mice, on average
  Lean tissue mass: gained
HFD mice, over six weeks, vehicle 17%
  Weight gain: 8 % of baseline
HFD mice, visceral (renal) and superficial (inguinal) fat pads
  White adipose tissue mass reduced by, proportional to body weight: > 20%
Compared to HFD alone
  Liver monoacylglycerols (MAGs) decreased: 83-97%
Markers of global inflammation and/or organ toxicity
  Creatinine, urea, and bilirubin: unaffected
[2]
  1-Arachidonoyl-GPA (20:4), HED Drug/ Chow Veh: 0.65^†
  1-Arachidonoyl-GPC (20:4n6), HED Drug/ Chow Veh: 0.73^††
  1-Arachidonoyl-GPE (20:4n6), HED Drug/ Chow Veh: 0.73^††
  1-Arachidonoyl-GPI (20:4), HED Drug/ Chow Veh: 0.75^†
  1-Lignoceroyl-GPC (24:0), HED Drug/ Chow Veh: 0.99
  1-Linolenoyl-GPC (18:3), HED Drug/ Chow Veh: 0.85
  1-Linoleoyl-GPA (18:2), HED Drug/ Chow Veh: 0.57^††
  1-Linoleoyl-GPC (18:2), HED Drug/ Chow Veh: 0.81^†
  1-Linoleoyl-GPE (18:2), HED Drug/ Chow Veh: 0.81
  1-Linoleoyl-GPG (18:2), HED Drug/ Chow Veh: 0.75^†
  1-Linoleoyl-GPI (18:2), HED Drug/ Chow Veh: 0.72
  1-Linoleoyl-GPS (18:2), HED Drug/ Chow Veh: 0.39^††
  1-Oleoy1-GPI (18:1), HED Drug/ Chow Veh: 0.58^†
  1-Oleoyl-GPC (18:1), HED Drug/ Chow Veh: 0.84
  1-Oleoyl-GPE (18:1), HED Drug/ Chow Veh: 0.79
  1-Oleoyl-GPS (18:1), HED Drug/ Chow Veh: 0.62^†
  1-Palmitoleoyl-GPC (16:1), HED Drug/ Chow Veh: 0.81
  1-Palmitoyl-GPA (16:0), HED Drug/ Chow Veh: 0.64^††
  1-Palmitoyl-GPC (16:0), HED Drug/ Chow Veh: 0.83^†
  1-Palmitoyl-GPE (16:0), HED Drug/ Chow Veh: 0.95
  1-Palmitoyl-GPI (16:0), HED Drug/ Chow Veh: 0.56^††
  1-Palmitoyl-GPS (16:0), HED Drug/ Chow Veh: 0.77
  1-Stearoyl-GPC (18:0), HED Drug/ Chow Veh: 0.94
  1-Stearoyl-GPE (18:0), HED Drug/ Chow Veh: 0.91
  1-Stearoyl-GPI (18:0), HED Drug/ Chow Veh: 0.82
  2-Palmitoleoyl-GPC (16:1), HED Drug/ Chow Veh: 1.08
  2-Palmitoyl-GPC (16:0), HED Drug/ Chow Veh: 0.81
  2-Stearoyl-GPE (18:0), HED Drug/ Chow Veh: 0.74^††
  Docosahexaenoate (DPA; 22:6n3), HED Drug/ Chow Veh: 0.76
  Docosapentaenoate (n3 DPA; 22:5n3), HED Drug/ Chow Veh: 0.60^†
  Docosapentaenoate (n6 DPA; 22:5n6), HED Drug/ Chow Veh: 0.92
  Eicosapentaenoate (EPA; 20:5n3), HED Drug/ Chow Veh: 0.60^†
  Sphingadienine, HED Drug/ Chow Veh: 0.55^††
  Sphinganine, HED Drug/ Chow Veh: 0.67^††
  Sphinganine-1-phosphate, HED Drug/ Chow Veh: 0.73
  Sphingosine, HED Drug/ Chow Veh: 0.73
  Sphingosine-1-phosphate, HED Drug/ Chow Veh: 0.93

Reference: patent publication US20240199572A1, “COMPOUNDS, COMPOSITIONS, AND METHODS FOR TREATING TYPE 2 DIABETES AND DEMENTIA” (THE BOARD OF TRUSTEES OF THE UNIVERSITY OF ILLINOIS, priority 2021, published 2024)
